# Data reported in publication PMC7865522, “Analyzing Kinase Similarity in Small Molecule and Protein Structural Space to Explore the Limits of Multi-Target Screening” (Molecules, 2021).
# Legend:
# PI3K [1] = biological target: T1, PI3K (Homo sapiens, UniProt P42336); assay: Eurofins in vitro kinase inhibition assay (HTRF, PIP3 displacement); assay type: biochemical; parameters: purchased Eurofins Cerep (contract assay); conditions: compound 20 µM; mean (SD); above 50% significant, 25-50% weak
# Procedure, shortened: (§1)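 Single-concentration screen at 20 µM. Substrate-analog phosphorylation with ATP for three kinases; HTRF PIP3 displacement for PI3K. Results reported as mean (SD) percentage inhibition relative to control.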
# BRAF [2] = biological target: T2, BRAF (Homo sapiens, UniProt P15056); assay: Eurofins in vitro kinase inhibition assay; assay type: biochemical; conditions: 20 µM; Table 3; read-out: % inhib. at 20 µM, BRAF (Eurofins), printed as symbol
# T2 construct: purchased DiscoverX (KINOMEscan service); host or cells: E. coli BL21-derived host (T7 phage) or HEK-293
# Procedure, shortened: as §1
# ErbB2 [3] = biological target: T3, ErbB2 (Homo sapiens, UniProt P04626); assay: Eurofins in vitro kinase inhibition assay; assay type: biochemical
# T3 construct: purchased DiscoverX (KINOMEscan service); host or cells: E. coli BL21-derived host (T7 phage) or HEK-293
# Procedure, shortened: as §1
# BRAF [4] = biological target: T2, BRAF; assay: DiscoverX KINOMEscan competition binding assay; conditions: 10 µM; Table 3; read-out: % ctrl. activity at 10 µM, BRAF (DiscoverX), printed as symbol
# Procedure, shortened: (§2)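 We measured displacement of kinase from a resin-bound standard ligand by 10 µM compound after 1 h incubation at room temperature, with qPCR detection of eluted kinase. Values below 35% of control count as significant binding.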
# EGFR = biological target: T4, EGFR (Homo sapiens, UniProt P00533); assay: DiscoverX KINOMEscan competition binding assay; conditions: compound 10 µM; lower values = higher affinity; below 35% = significant binding
# T4 construct: purchased DiscoverX (KINOMEscan service); host or cells: E. coli BL21-derived host (T7 phage) or HEK-293
# Procedure, shortened: as §2
# ErbB2 [5] = biological target: T3, ErbB2; assay: DiscoverX KINOMEscan competition binding assay; conditions: compound 10 µM; lower values = higher affinity; below 35% = significant binding
# Procedure, shortened: as §2
# VEGFR2 = biological target: T5, VEGFR2 (Homo sapiens, UniProt P35968); assay: DiscoverX KINOMEscan competition binding assay; conditions: compound 10 µM; lower values = higher affinity; below 35% = significant binding
# T5 construct: purchased DiscoverX (KINOMEscan service); host or cells: E. coli BL21-derived host (T7 phage) or HEK-293
# Procedure, shortened: as §2
# PI3K [6] = biological target: T1, PI3K; assay: DiscoverX KINOMEscan competition binding assay; parameters: purchased DiscoverX (KINOMEscan service); host or cells: E. coli BL21-derived host (T7 phage) or HEK-293; conditions: compound 10 µM; lower values = higher affinity; below 35% = significant binding
# Procedure, shortened: as §2
# T3 sequence (P04626 23-1255): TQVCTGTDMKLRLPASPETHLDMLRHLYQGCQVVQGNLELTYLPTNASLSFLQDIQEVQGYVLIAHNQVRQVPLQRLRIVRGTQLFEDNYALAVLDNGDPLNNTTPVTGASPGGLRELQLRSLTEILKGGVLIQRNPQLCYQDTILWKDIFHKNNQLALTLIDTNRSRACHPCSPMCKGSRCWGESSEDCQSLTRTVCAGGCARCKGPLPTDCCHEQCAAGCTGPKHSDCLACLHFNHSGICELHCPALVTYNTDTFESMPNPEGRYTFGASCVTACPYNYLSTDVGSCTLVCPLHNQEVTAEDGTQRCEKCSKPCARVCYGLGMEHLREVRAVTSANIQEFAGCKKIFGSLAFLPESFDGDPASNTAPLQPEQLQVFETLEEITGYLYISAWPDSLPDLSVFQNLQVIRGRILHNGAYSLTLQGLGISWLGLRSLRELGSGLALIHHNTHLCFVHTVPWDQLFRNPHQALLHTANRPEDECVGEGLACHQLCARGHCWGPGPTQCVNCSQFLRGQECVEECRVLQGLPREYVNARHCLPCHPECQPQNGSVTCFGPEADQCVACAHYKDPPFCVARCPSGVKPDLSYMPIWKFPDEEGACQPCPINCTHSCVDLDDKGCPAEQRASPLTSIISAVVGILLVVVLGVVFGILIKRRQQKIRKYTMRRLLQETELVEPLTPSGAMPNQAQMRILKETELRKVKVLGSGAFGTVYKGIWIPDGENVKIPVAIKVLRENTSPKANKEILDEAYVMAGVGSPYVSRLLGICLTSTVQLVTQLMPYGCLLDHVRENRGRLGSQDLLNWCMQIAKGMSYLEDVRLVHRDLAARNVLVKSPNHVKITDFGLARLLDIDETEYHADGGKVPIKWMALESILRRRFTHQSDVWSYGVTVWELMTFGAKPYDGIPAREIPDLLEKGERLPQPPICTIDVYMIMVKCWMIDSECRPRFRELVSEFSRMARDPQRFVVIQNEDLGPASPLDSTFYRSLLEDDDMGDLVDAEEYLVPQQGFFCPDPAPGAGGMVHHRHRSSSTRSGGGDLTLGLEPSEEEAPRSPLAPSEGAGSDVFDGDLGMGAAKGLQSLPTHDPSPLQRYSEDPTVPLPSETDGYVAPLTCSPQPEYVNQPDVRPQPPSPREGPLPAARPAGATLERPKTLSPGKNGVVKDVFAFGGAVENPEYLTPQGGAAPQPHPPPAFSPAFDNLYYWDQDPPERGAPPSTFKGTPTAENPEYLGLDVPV
# T2 sequence (P15056 whole entry): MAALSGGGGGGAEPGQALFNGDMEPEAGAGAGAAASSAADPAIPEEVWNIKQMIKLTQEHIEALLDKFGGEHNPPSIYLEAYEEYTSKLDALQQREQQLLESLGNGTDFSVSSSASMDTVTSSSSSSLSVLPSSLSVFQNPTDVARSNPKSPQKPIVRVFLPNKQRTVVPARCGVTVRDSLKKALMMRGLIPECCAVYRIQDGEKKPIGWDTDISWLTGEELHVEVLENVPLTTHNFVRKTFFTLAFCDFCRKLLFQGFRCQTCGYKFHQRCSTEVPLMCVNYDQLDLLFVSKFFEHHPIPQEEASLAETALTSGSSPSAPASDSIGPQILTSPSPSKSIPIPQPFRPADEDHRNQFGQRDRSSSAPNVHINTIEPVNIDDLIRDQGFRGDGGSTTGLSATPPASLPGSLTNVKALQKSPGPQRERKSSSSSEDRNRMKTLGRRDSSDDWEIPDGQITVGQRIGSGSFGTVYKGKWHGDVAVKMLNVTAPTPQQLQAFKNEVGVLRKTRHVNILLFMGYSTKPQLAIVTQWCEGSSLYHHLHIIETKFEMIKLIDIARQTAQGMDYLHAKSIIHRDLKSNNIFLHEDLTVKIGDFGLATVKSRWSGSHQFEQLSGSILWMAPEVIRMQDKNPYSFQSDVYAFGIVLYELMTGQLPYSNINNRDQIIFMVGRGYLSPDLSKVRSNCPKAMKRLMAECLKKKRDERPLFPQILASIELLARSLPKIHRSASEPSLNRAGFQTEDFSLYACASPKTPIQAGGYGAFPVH
# T5 sequence (P35968 20-1356): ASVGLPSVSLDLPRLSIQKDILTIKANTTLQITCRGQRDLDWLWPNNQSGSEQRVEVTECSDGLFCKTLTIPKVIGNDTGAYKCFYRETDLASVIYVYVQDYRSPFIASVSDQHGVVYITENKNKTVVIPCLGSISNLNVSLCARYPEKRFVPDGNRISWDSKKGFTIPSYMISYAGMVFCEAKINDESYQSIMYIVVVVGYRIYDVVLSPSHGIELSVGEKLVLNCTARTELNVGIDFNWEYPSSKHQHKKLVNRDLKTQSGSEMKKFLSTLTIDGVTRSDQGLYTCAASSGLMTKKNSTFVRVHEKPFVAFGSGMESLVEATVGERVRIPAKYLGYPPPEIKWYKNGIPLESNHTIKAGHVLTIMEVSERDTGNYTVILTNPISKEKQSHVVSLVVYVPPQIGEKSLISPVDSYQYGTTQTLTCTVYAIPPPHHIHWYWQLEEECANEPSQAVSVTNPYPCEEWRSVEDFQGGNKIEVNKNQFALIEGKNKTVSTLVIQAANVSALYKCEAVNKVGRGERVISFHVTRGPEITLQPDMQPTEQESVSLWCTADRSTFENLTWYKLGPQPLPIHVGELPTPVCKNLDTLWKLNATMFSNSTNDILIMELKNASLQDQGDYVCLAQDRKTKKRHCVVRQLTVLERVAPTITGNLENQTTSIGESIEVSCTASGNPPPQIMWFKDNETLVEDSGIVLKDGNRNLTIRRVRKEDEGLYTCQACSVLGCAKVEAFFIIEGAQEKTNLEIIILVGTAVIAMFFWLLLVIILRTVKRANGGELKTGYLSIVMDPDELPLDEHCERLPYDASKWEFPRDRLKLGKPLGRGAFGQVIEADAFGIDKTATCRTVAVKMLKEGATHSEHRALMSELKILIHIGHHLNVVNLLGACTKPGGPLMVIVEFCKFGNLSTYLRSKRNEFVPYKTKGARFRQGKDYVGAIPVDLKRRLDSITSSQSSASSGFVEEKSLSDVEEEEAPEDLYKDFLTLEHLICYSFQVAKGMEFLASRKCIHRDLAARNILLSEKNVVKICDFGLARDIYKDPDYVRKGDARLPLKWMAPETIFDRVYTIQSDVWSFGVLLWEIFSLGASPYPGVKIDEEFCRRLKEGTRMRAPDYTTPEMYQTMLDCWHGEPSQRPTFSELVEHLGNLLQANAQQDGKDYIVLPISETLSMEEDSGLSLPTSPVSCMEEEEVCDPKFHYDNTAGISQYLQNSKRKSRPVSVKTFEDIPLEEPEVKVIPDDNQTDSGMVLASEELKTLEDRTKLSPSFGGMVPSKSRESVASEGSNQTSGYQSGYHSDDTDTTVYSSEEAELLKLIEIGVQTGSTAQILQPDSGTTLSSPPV
# T4 sequence (P00533 25-1210): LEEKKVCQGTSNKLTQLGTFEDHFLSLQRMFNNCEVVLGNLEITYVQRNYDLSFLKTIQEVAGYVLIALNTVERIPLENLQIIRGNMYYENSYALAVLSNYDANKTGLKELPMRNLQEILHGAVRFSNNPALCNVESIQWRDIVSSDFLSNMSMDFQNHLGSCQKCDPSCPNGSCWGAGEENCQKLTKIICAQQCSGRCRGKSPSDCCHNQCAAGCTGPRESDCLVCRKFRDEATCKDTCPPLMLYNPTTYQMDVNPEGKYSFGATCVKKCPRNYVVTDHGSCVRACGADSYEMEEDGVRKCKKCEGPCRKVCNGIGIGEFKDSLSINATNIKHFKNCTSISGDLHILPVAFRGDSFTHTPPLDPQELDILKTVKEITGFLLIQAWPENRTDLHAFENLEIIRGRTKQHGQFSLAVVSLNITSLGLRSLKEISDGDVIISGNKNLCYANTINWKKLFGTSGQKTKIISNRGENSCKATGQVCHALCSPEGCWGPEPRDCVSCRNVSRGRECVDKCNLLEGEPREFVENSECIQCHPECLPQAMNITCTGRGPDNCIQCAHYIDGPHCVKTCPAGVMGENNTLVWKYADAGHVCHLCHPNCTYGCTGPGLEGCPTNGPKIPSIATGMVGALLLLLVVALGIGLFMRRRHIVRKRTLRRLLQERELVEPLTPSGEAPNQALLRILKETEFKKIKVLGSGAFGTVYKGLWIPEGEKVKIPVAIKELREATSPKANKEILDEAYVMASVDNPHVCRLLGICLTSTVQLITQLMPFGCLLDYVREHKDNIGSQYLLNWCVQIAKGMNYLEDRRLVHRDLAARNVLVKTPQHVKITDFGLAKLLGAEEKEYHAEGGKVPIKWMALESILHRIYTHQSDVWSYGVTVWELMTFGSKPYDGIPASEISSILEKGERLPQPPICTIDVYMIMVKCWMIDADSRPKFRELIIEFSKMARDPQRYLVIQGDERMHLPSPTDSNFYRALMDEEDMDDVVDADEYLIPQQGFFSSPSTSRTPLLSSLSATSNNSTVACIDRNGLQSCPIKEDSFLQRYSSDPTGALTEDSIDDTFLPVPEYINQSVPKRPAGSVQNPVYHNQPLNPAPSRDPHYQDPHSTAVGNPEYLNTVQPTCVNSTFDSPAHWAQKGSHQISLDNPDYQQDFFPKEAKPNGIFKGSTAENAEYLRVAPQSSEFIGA
compound,measurement,setting,value
COC(=O)Cc1ccc(Oc2ncnc3sc4c(c23)CC[C@@H](C)C4)cc1 (racemic) [DS39984],"% inhibition of control activity, PI3K (Eurofins)",PI3K [1],-6.7 (2.3) % inhibition
same,inhibition at 20 µM,BRAF [2],< 50%
same,inhibition at 20 µM,"ErbB2 [3]; 20 µM, Table 3, read-out: % inhib. at 20 µM, ErbB2 (Eurofins), printed as symbol",< 50%
same,"% inhibition of control activity, ErbB2 (Eurofins)","ErbB2 [3]; compound 20 µM, mean (SD), above 50% significant, 25-50% weak",-1.3 (1.8) % inhibition
same,remaining binding at 10 µM,BRAF [4],≥ 99%
same,"% control, EGFR (DiscoverX)",EGFR,17 % control
same,"% control, ErbB2 (DiscoverX)",ErbB2 [5],21 % control
same,"% control, VEGFR2 (DiscoverX)",VEGFR2,99 % control
same,"% control, PI3K (DiscoverX)",PI3K [6],100 % control
